Literature values, collected in patent US12377034B2, “Method for dyeing keratinous material, comprising the use of an organosilicon compound, an effect pigment and a film-forming polymer II” (Henkel AG & Co. KGaA, priority 2019, dated 2025).

Conditions: for solubility in water: 25° C.

| SMILES | solubility in water | solubility in water (in words) (at 25° C.) |
| --- | --- | --- |
| O=S(=O)(O)c1ccc(N=Nc2c(O)ccc3ccccc23)cc1 [Acid Orange 7, 4-[(2-hydroxy-1-naphthyl)azo]benzene sulphonate] | more than 7 g/L | – |
| O=C(O)C1=NN(c2ccc(S(=O)(=O)O)cc2)C(=O)C1N=Nc1ccc(S(=O)(=O)O)cc1 (stereo not shown) [Acid Yellow 23, 4,5-dihydro-5-oxo-1-(4-sulfophenyl)-4-((4-sulfophenyl)azo)-1H-pyrazole-3-carboxylic acid] | – | highly soluble |
| CCN(Cc1cccc(S(=O)(=O)O)c1)c1ccc(C(=C2C=CC(=[N+](CC)Cc3cccc(S(=O)(=O)O)c3)C=C2)c2ccccc2S(=O)(=O)[O-])cc1 [Acid Blue 9] | more than 20 % by weight | – |
| O=[N+]([O-])c1cc([N+](=O)[O-])c2ccc(S(=O)(=O)O)cc2c1O [Acid Yellow 9, 8-hydroxy-5,7-dinitro-2-naphthalenesulfonic acid] | above 40 g/L | – |
